Reference: patent US11319318B2, “Pyridinones and isoquinolinones as inhibitors of the bromodomain BRD9” (Boehringer Ingelheim International GmbH, priority 2015, dated 2022)

The compounds below were run against T1, bromodomain of BRD9 (GST fusion) / acetylated histone H4 peptide (BET Bromodomain Ligand) (Homo sapiens, UniProt Q9H8M2) (assay: BRD9-H4 Tetraacetylated Peptide Inhibition AlphaScreen).
T1 construct: A GST fusion protein of the bromodomain of BRD9; purchased BPS Biosciences #32519
T1 sequence (Q9H8M2 136-240 limits assumed): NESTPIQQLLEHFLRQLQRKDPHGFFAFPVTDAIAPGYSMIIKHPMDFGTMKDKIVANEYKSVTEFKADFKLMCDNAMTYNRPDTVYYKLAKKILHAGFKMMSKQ
Type: binding
Description: BRD9-H4 Tetraacetylated Peptide Inhibition AlphaScreen
This assay is used to identify compounds which inhibit the interaction of the bromodomain of BRD9 with a tetra-acetylated peptide based on the sequence of histone H4 (termed the “BET Bromodomain ligand” as purchased from BPS Biosciences).
A GST fusion protein of the bromodomain of BRD9 and an acetylated histone H4 peptide (the “BET Bromodomain Ligand” are purchased as part of the BRD9 Inhibitor Screening Assay Kit at BPS Biosciences (Cat. Number: #32519)
AlphaScreen Beads (Perkin Elmer):
AlphaLISA Glutathione Acceptor Beads
AlphaScreen Streptavidin Donor Beads
Assay plates: Proxiplate-384 PLUS, white (PerkinElmer)
The assay is done in a darkened room below 100 Lux.
Compounds are dispensed onto assay plates using an Access Labcyte Workstation with the Labcyte Echo 550 from a DMSO solution. For the chosen highest concentration of 100 μM, 150 nl of compound solution are transferred from a 10 mM DMSO solution. A series of 11 concentrations is transferred for each compound at which each concentration is five-fold lower than the previous one (i.e. 100 μM, 20 μM, 4 μM, 0.8 μM, etc). DMSO is added such that every well has a total of 150 nl of DMSO.
15 μl of the resulting mix are added to the assay plates that contain 150 nl of the compounds. After 60 min at room temperature the signal is measured in a PerkinElmer Envision HTS Multilabel Reader using the AlphaScreen specifications from PerkinElmer.
Each plate contains negative controls where biotinylated BET Bromodomain Ligand and GST-BRD9 are left out and replaced by assay buffer. Negative control values are entered as low basis value when using the software GraphPad Prism for calculations.

Compound	IC50
CN1CCN(C(=O)c2ccc(-c3cc(C(F)F)c(=O)n(C)c3)cc2)CC1 [Compound I-27]	705 nM
Cc1ccc(-c2cc(C)c(=O)n(C3CC3)c2)cc1NS(C)(=O)=O [Compound I-28]	5120 nM
Cc1ccc(-c2cc(N)c(=O)n(C)c2)cc1NS(C)(=O)=O [Compound I-29]	4220 nM
Cc1cc(-c2ccc(C(=O)NC3CCN(C)CC3)cc2)cn(C)c1=O [Compound I-30, 4-(1,5-Dimethyl-6-oxo-1,6-dihydro-pyridin-3-yl)-N-(1-methyl-piperidin-4-yl)-benzamide]	444 nM
CNc1cc(-c2ccc(C)c(NS(C)(=O)=O)c2)cn(C)c1=O [Compound I-32, N-[2-Methyl-5-(1-methyl-5-methylamino-6-oxo-1,6-dihydro-pyridin-3-yl)-phenyl]-methanesulfonamide]	2030 nM
Cc1cc(-c2cc(C)c(=O)n(C)c2)ccc1CN1CCNCC1 [Compound I-33, 1,3-Dimethyl-5-(3-methyl-4-piperazin-1-ylmethyl-phenyl)-1H-pyridin-2-one]	22 nM
Cc1cc(-c2cc(C)c(=O)n(C)c2)ccc1CN1CCN(C)CC1 [Compound I-34]	17 nM
Cc1cc(-c2cc(C)c(=O)n(C)c2)ccc1CN(C)C [Compound I-35]	47 nM
CNCc1ccc(-c2cc(C)c(=O)n(C)c2)cc1C [Compound I-36]	42 nM
Cc1cc(-c2ccc(C(=O)N3CCNCC3)cc2)cn(C)c1=O [Compound I-37, 1,3-Dimethyl-5-[4-(piperazine-1-carbonyl)-phenyl]-1H-pyridin-2-one]	34 nM
Cc1cc(-c2ccc(C(=O)N3CC4CCC3C4)cc2)cn(C)c1=O (centres unmarked) [Compound I-38]	256 nM
Cc1cc(-c2ccc(C(=O)N3CC(O)C3)cc2)cn(C)c1=O [Compound I-39]	294 nM
Cc1cc(-c2ccc(C(=O)N3CCCC3)cc2)cn(C)c1=O [Compound I-40]	496 nM
Cc1ccc(-c2cc(C)c(=O)n(C)c2)cc1NCc1cccnc1 [Compound I-42, 1,3-Dimethyl-5-{4-methyl-3-[(pyridin-3-ylmethyl)-amino]-phenyl}-1H-pyridin-2-one]	470 nM
CN1CCN(C(=O)c2ccc(-c3cc(I)c(=O)n(C)c3)cc2)CC1 [Compound I-43, 3-Iodo-1-methyl-5-[4-(4-methyl-piperazine-1-carbonyl)-phenyl]-1H-pyridin-2-one]	65 nM
CN1CCN(C(=O)c2ccc(-c3cc(Br)c(=O)n(C)c3)cc2)CC1 [Compound I-44]	508 nM
CN1CCN(C(=O)c2ccc(-c3cc(O)c(=O)n(C)c3)cc2)CC1 [Compound I-45, 3-Hydroxy-1-methyl-5-[4-(4-methyl-piperazine-1-carbonyl)-phenyl]-1H-pyridin-2-one]	2090 nM
Cc1cc(-c2ccc(C3(N)CC3)cc2)cn(C)c1=O [Compound I-69]	15 nM
Cc1cc(-c2ccc(CN)cc2)cn(C)c1=O [Compound I-78]	130 nM

Compound	IC50
Cc1cc(-c2ccc(CN3CCNCC3)cc2)cn(C)c1=O [Compound I-79]	60 nM
Cc1cc(-c2ccc(CN3CCN(C)CC3)cc2)cn(C)c1=O [Compound I-88]	78 nM
COc1cc(-c2cc(C)c(=O)n(C)c2)ccc1C(=O)N1CCN(C)CC1 [Compound I-89, 5-[3-methoxy-4-(4-methyl-piperazine-1-carbonyl)-phenyl]-1,3-dimethyl-1H-pyridin-2-one]	70 nM
Cc1cc(-c2ccc(N)cc2)cn(C)c1=O [Compound I-91]	128 nM
Cc1cc(-c2ccc([C@H](C)N)cc2)cn(C)c1=O [Compound I-93]	112 nM
Cc1cc(-c2ccc([C@@H](C)N)cc2)cn(C)c1=O [Compound I-94]	334 nM
Cc1cc(-c2ccc(C(=O)c3cncnc3)cc2)cn(C)c1=O [Compound I-97]	267 nM
Cc1cc(-c2ccc(C(=O)c3c(Cl)ncnc3Cl)cc2)cn(C)c1=O [Compound I-100]	50 nM
Cc1cc(-c2cccc(OC(F)F)c2)cn(C)c1=O [Compound I-101]	503 nM
COc1cc(-c2cc(C)c(=O)n(C)c2)ccc1C(=O)N1CCNCC1 [Compound I-158]	19 nM
Cc1cc(-c2cc(C)c(=O)n(C)c2)cc(C)c1C(=O)N1CCNCC1 [Compound I-160]	33 nM
COc1cc(C(=O)N2CCNCC2)ccc1-c1cc(C)c(=O)n(C)c1 [Compound I-161]	32 nM
Cc1cc(-c2cc(C)c(=O)n(C)c2)ccc1C(=O)N1CCNCC1 [Compound I-162]	33 nM
CCS(=O)(=O)Cc1cc(-c2cc(C)c(=O)n(C)c2)ccc1C(=O)N1CCNCC1 [Compound I-169, 5-[3-Ethanesulfonylmethyl-4-(piperazine-1-carbonyl)-phenyl]-1,3-dimethyl-1H-pyridin-2-one]	29 nM
Cc1cc(-c2ccc(C(=O)N3CCNCC3)c(CS(C)(=O)=O)c2)cn(C)c1=O [Compound I-170]	29 nM
Cc1cc(-c2ccc(C(=O)N3CCN(C)CC3)c(CS(C)(=O)=O)c2)cn(C)c1=O [Compound I-171]	103 nM
CCS(=O)(=O)Cc1cc(-c2cc(C)c(=O)n(C)c2)ccc1C(=O)N(C)C [Compound I-172]	294 nM
COc1cc(C(=O)N2CCN(C)CC2)ccc1-c1cc(C)c(=O)n(C)c1 [Compound I-173, 5-[2-Methoxy-4-(4-methyl-piperazine-1-carbonyl)-phenyl]-1,3-dimethyl-1H-pyridin-2-one]	151 nM
Cc1cc(-c2cc(C)c(=O)n(C)c2)ccc1C(=O)N1CCN(C)CC1 [Compound I-174]	106 nM

Compound	IC50
Cc1cc(-c2ccc(C(=O)N3CCN(C)CC3)c3ccccc23)cn(C)c1=O [Compound I-175]	135 nM
Cc1cc(-c2ccc(C(=O)N3CCN(C)CC3)c(Cl)c2)cn(C)c1=O [Compound I-176]	204 nM
Cc1cc(-c2ccc(C(=O)N3CCN(C)CC3)c(O)c2)cn(C)c1=O [Compound I-188, 5-[3-Hydroxy-4-(4-methyl-piperazine-1-carbonyl)-phenyl]-1,3-dimethyl-1H-pyridin-2-one]	270 nM
Cc1cc(-c2ccc(CN3C[C@@H]4C[C@H]3CN4)cc2)cn(C)c1=O [Compound I-189, 5-{4-[(S)-1-(2,5-Diaza-bicyclo[2.2.1]hept-2-yl)methyl]-phenyl}-1,3-dimethyl-1H-pyridin-2-one]	23 nM
COc1cc(-c2cc(C)c(=O)n(C)c2)ccc1CN1CCNCC1 [Compound I-190, 5-(3-methoxy-4-piperazin-1-ylmethyl-phenyl)-1,3-dimethyl-1H-pyridin-2-one]	21 nM
COc1cc(-c2cc(C)c(=O)n(C)c2)ccc1CN1CCN(C)CC1 [Compound I-191, 5-[3-methoxy-4-(4-methyl-piperazin-1-ylmethyl)-phenyl]-1,3-dimethyl-1H-pyridin-2-one]	3 nM
CNCc1ccc(-c2cc(C)c(=O)n(C)c2)cc1OC [Compound I-192]	33 nM
CN1CCN(C(=O)c2ccc(-c3cn(C)c(=O)c4ccccc34)cc2)CC1 [II-4]	86 nM
CCn1cc(-c2ccc(C(=O)N3CCN(C)CC3)cc2)c2ccccc2c1=O [II-15]	398 nM
CCn1cc(-c2ccc(C(=O)N(C)C)cc2)c2ccccc2c1=O [II-16]	983 nM
CN1CCN(C(=O)c2ccc(-c3cn(C4CC4)c(=O)c4ccccc34)cc2)CC1 [II-18]	984 nM
Cc1ccc(-c2cn(C)c(=O)c3cccc(F)c23)cc1NS(C)(=O)=O [II-27]	1160 nM
Cc1ccc(-c2cn(C)c(=O)c3cccc(C)c23)cc1NS(C)(=O)=O [II-28, N-[5-(2,5-Dimethyl-1-oxo-1,2-dihydro-isoquinolin-4-yl)-2-methyl-phenyl]-methanesulfonamide]	923 nM
Cc1ccc(-c2cn(C)c(=O)c3ccccc23)cc1NS(C)(=O)=O [II-29]	239 nM
CCS(=O)(=O)Nc1cc(-c2cn(C)c(=O)c3ccccc23)ccc1C [II-35, Ethanesulfonic acid [2-methyl-5-(2-methyl-1-oxo-1,2-dihydro-isoquinolin-4-yl)-phenyl]-amide]	293 nM
Cc1ccc(-c2cn(C)c(=O)c3cccc(O)c23)cc1NS(C)(=O)=O [II-36, N-[5-(5-Hydroxy-2-methyl-1-oxo-1,2-dihydro-isoquinolin-4-yl)-2-methyl-phenyl]-methanesulfonamide]	5250 nM
Cc1ccc(-c2cn(C)c(=O)c3cc(N)ccc23)cc1NS(C)(=O)=O [II-37, N-[5-(7-Amino-2-methyl-1-oxo-1,2-dihydro-isoquinolin-4-yl)-2-methyl-phenyl]-methanesulfonamide]	2690 nM
Cc1ccc(-c2cn(C)c(=O)c3cccc(N)c23)cc1NS(C)(=O)=O [II-38, N-[5-(5-amino-2-methyl-1-oxo-1,2-dihydro-isoquinolin-4-yl)-2-methyl-phenyl]-methanesulfonamide]	8420 nM
